Assay [1] deals with Cys242 in human PIK3CA (157-299) (Homo sapiens (Human), UniProt P42336). Nature of the assay: Covalent modification assay using MALDI-TOF MS. In kind it is biochemical. As to conditions: 4 h reaction time point. The method, boiled down:
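Covalent adduct formation was read by linear-mode MALDI-TOF with sinapinic acid matrix, reported as modified-protein peak height divided by total protein peak heights. Reactions held PIK3CA (157-299) at 1 or 3.33 μM in HEPES/NaCl/MgCl2 buffer, pH 7.3, sampled after 15 min to 4 h at room temperature.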

A further assay relates to pAKT in BT474 cells. Nature of the assay: Cell-based pAKT HTRF assay in BT474 cells. The following applies: BT474 cells, 4 hr incubation, read-out: pAKT inhibition IC50 in BT474 cells. The essentials: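 The HTRF signal (excitation 320 nm, emission 615 nm) came from d2/Eu Cryptate antibodies added to lysates and incubated 4–24 h at room temperature. Those lysates were taken from cells treated for 4 hr with compound, top concentration 3 μM, in 0.25% DMSO.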
A general note: Time-resolved FRET reads energy transfer from a long-lived donor to a nearby acceptor.

The mark [2] stands for this setting: 1 μM protein target, 1:5 protein to compound ratio (compounds 853-1279).
[3] abbreviates: 3.33 μM protein target, 1:7.5 protein to compound ratio (compounds 1-852).

Like-named read-outs stand apart in the source and are kept apart here.

Sequence of Cys242 in human PIK3CA (157-299) (P42336 157-299): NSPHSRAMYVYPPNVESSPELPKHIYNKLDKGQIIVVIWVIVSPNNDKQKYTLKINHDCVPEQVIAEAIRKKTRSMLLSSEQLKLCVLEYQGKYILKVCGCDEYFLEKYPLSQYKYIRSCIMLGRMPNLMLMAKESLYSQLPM

For orientation: IC50 means the concentration at which inhibition is half-maximal. For `C=CC(=O)N1CCn2nc(-c3nc(-c4ccc(OCCN(C)C)cc4F)c4ccsc4c3-c3c(F)cc(F)cc3OCCOC)cc2C1C` (centres unmarked) [Compound 1091], the “% of modification” value in assay [1] (setting [2]) is given as “A (percent of modification of PIK3CA protein ≥75%)”. Moreover, the 50% inhibitory concentration (IC50) in the assay with pAKT in BT474 cells (Compounds 1000-1279) is under 100 nM.

In the case of `C=CC(=O)N1Cc2cc(-c3nc(-c4ccc5c(c4)CCN(C)C5)c4ccsc4c3-c3c(F)cc(F)cc3OCCO)nn2[C@@H](C)C1` [Compound 564], the “% of modification” value in assay [1] (setting [3]) was “D (percent of modification <25%)”. For the same molecule, the IC50 with pAKT in BT474 cells (Compounds 10-999) lay within 100 to 1000 nM.

For `C=CC(=O)N1CCc2nc(-c3nc(-c4ccc(N5CCN(C)CC5)nc4)c4ccsc4c3-c3c(F)cc(F)cc3OCCOC)sc2C1` [Compound 976], the “% of modification” value in assay [1] (setting [2]) is recorded as “A (percent of modification of PIK3CA protein ≥75%)”. Also, the IC50 in the assay on pAKT in BT474 cells (Compounds 10-999) is under 100 nM.

As for `C=CC(=O)N1CC[C@@H](n2ccc(-c3nc(-c4cnn(C)c4)c4ccsc4c3-c3ccc(F)cc3OC(C)C)n2)C1` [Compound 329], the “% of modification” value in assay [1] (setting [3]) is “A (percent of modification of PIK3CA protein ≥75%)”. Also, the IC50 with pAKT in BT474 cells (Compounds 10-999) fell in the range of 100 to 1000 nM.

With `C=CC(=O)N1CCn2nc(-c3nc(-c4ccc5c(cnn5C)c4)c4ccsc4c3-c3c(F)cc(F)cc3OCCOC(F)F)cc2C1C` (centres unmarked) [Compound 1234], the “% of modification” value in assay [1] (setting [2]) was “A (percent of modification of PIK3CA protein ≥75%)”. Further, in the assay on pAKT in BT474 cells (Compounds 1000-1279), the IC50 was under 100 nM.

On to `C=CC(=O)N1CCc2cc(-c3nc(-c4ccc5c(cnn5C)c4)c4ccsc4c3-c3c(F)cc(F)cc3OCCO)nn2CC1` [Compound 1207, (S)-1-(2-(7-(2,4-difluoro-6-(2-hydroxyethoxy)phenyl)-4-(1-methyl-1H-indazol-5-yl)thieno[3,2-c]pyridin-6-yl)-4,5,7,8-tetrahydro-6H-pyrazolo[1,5-d][1,4]diazepin-6-yl)prop-2-en-1-one], for which the “% of modification” value in assay [1] (setting [2]) is on record as “A (percent of modification of PIK3CA protein ≥75%)”. In the assay on pAKT in BT474 cells (Homo sapiens, BT-474, Compounds 1000-1279), the IC50 was under 100 nM.

As for `C=CC(=O)N1CCc2nc(-c3nc(-c4ccc(C5(N)COC5)cc4)c4ccsc4c3-c3c(F)cc(F)cc3OCCOC)sc2C1` [Compound 426], the “% of modification” value in assay [1] (setting [3]) is listed as “A (percent of modification of PIK3CA protein ≥75%)”. The 50% inhibitory concentration (IC50) with pAKT in BT474 cells (Compounds 10-999) was under 100 nM.

With `C=CC(=O)N1Cc2cc(-c3nc(-c4ccc5ncc(=O)n(C)c5c4)c4ccsc4c3-c3c(F)cc(F)cc3OCCOC)nn2CC1C` (centres unmarked) [Compound 856], in assay [1] (setting [2]), the “% of modification” value is listed as “A (percent of modification of PIK3CA protein ≥75%)”. Further, the IC50 in the assay on pAKT in BT474 cells (Compounds 10-999) is under 100 nM.

Take `C=CC(=O)N1CCn2nc(-c3nc(-c4ccc5c(cnn5C)c4)c4ccsc4c3-c3c(F)cc(F)cc3OCC(C)(C)O)cc2C1C` (centres unmarked) [Compound 1125]: the “% of modification” value in assay [1] (setting [2]) is on record as “A (percent of modification of PIK3CA protein ≥75%)”. Further, the IC50 in the assay with pAKT in BT474 cells (Compounds 1000-1279) was in the range of 100 to 1000 nM.

For `C=CC(=O)N1CCn2nc(-c3nc(-c4ccc5c(c4)CNC5=O)c4ccsc4c3-c3c(F)cc(F)cc3OCCOC)cc2[C@H]1C` [Compound 520], in assay [1] (setting [3]), the “% of modification” value is listed as “A (percent of modification of PIK3CA protein ≥75%)”. For the same molecule, the 50% inhibitory concentration (IC50) in the assay on pAKT in BT474 cells (Compounds 10-999) is under 100 nM.

Take `CC#CC(=O)N1CCn2nc(-c3nc(-c4ccc5c(c4)CCNC5=O)c4ccsc4c3-c3ccc(F)cc3OC(C)C)cc2C1` [Compound 268]: in assay [1] (setting [3]), the “% of modification” value is “A (percent of modification of PIK3CA protein ≥75%)”. Further, the concentration for half-maximal inhibition (IC50) in the assay with pAKT in BT474 cells (Compounds 10-999) is 100 to 1000 nM.

On to `C=CC(=O)N1CCn2nc(-c3nc(-c4ccc5c(cnn5C)c4F)c4ccsc4c3-c3c(F)cc(F)cc3OCCOC)cc2C1C` (centres unmarked) [Compound 1144], for which the “% of modification” value in assay [1] (setting [2]) is recorded as “A (percent of modification of PIK3CA protein ≥75%)”. In addition, the IC50 in the assay with pAKT in BT474 cells (Compounds 1000-1279) is under 100 nM.

On to `C=CC(=O)N1CCc2nc(-c3nc(-c4ccc(=O)n(C(F)F)c4)c4ccsc4c3-c3c(F)cc(F)cc3OC(C)C)sc2C1` [Compound 347], for which the “% of modification” value in assay [1] (setting [3]) was “A (percent of modification of PIK3CA protein ≥75%)”. The half-inhibitory concentration (IC50) in the assay on pAKT in BT474 cells (Compounds 10-999) fell in the range of 100 to 1000 nM.

`C=CC(=O)N1CCc2ccc(-c3nc(-c4ccc5c(c4)CN(C)CC5(F)F)c4ccsc4c3-c3c(F)cc(F)cc3OCCOC)cc2C1` [Compound 1272]: the “% of modification” value in assay [1] (setting [2]) was “D (percent of modification <25%)”. The half-inhibitory concentration (IC50) in the assay with pAKT in BT474 cells (Compounds 1000-1279) was over 1000 nM.

Consider `C=CC(=O)N1CCn2nc(-c3nc(-c4ccnc(N(C)C)c4)c4ccsc4c3-c3c(F)cc(F)cc3OCCO)cc2C1C` (centres unmarked) [Compound 960], for which the “% of modification” value in assay [1] (setting [2]) is given as “A (percent of modification of PIK3CA protein ≥75%)”. The half-maximal inhibitory concentration (IC50) with pAKT in BT474 cells (Compounds 10-999) is under 100 nM.

As to `C=CC(=O)N1CCc2nc(-c3nc(-c4ccc5c(c4)CCN(C)C5)c4ccsc4c3-c3c(F)cc(F)cc3OCCOC)sc2C1` [Compound 369], the “% of modification” value in assay [1] (setting [3]) is reported as “A (percent of modification of PIK3CA protein ≥75%)”. Moreover, the IC50 in the assay on pAKT in BT474 cells (Compounds 10-999) is under 100 nM.

Regarding `C=CC(=O)N1CCn2nc(-c3nc(N4CC(CC(=O)N(C)C)C4)c4ccsc4c3-c3c(F)cc(F)cc3OCCOC)cc2C1C` (centres unmarked) [Compound 1039], in assay [1] (setting [2]), the “% of modification” value was “A (percent of modification of PIK3CA protein ≥75%)”. For the same molecule, the IC50 in the assay on pAKT in BT474 cells (Compounds 1000-1279) is over 1000 nM.

As to `COCCOc1cc(F)cc(F)c1-c1c(-c2cc3n(n2)CCN(C#N)C3C)nc(-c2ccc3c(cnn3C)c2)c2ccsc12` (centres unmarked) [Compound 1233], the “% of modification” value in assay [1] (setting [2]) is on record as “D (percent of modification <25%)”. For the same molecule, in the assay on pAKT in BT474 cells (Compounds 1000-1279), the IC50 is 100 to 1000 nM.

Regarding `C=CC(=O)N1CCn2nc(-c3nc(-c4ccc5c(c4)ncn5C)c4ccsc4c3-c3c(F)cc(F)cc3OC[C@@H](C)O)cc2[C@H]1C` [Compound 761], in assay [1] (setting [3]), the “% of modification” value is recorded as “A (percent of modification of PIK3CA protein ≥75%)”. The IC50 in the assay with pAKT in BT474 cells (Compounds 10-999) was under 100 nM.

`C=CC(=O)N1Cc2cc(-c3nc(-c4ccc5nn(C)cc5c4)c4ccsc4c3-c3c(F)cc(F)cc3OC[C@@H](C)O)nn2[C@@H](C)C1` [Compound 571, 1-((S)-2-((R)-7-(2,4-difluoro-6-((R)-2-hydroxypropoxy)phenyl)-4-(2-methyl-2H-indazol-5-yl)thieno[3,2-c]pyridin-6-yl)-7-methyl-6,7-dihydropyrazolo[1,5-a]pyrazin-5(4H)-yl)prop-2-en-1-one]: the “% of modification” value in assay [1] (setting [3]) is recorded as “D (percent of modification <25%)”. For the same molecule, the 50% inhibitory concentration (IC50) in the assay on pAKT in BT474 cells (Compounds 10-999) is under 100 nM.

Turning to `C=CC(=O)N1CCn2nc(-c3nc(-c4cn(C)cn4)c4ccsc4c3-c3c(F)cc(F)cc3OCCOC)cc2[C@H]1C` [Compound 741], the “% of modification” value in assay [1] (setting [3]) was “A (percent of modification of PIK3CA protein ≥75%)”. In addition, the IC50 with pAKT in BT474 cells (Compounds 10-999) was under 100 nM.

Regarding `C=CC(=O)N1Cc2cc(-c3nc(-c4ccc5nn(C)cc5c4)c4ccsc4c3-c3c(F)cc(F)cc3OC[C@@H](C)O)nn2[C@@H](C)C1` [Compound 572, 1-((S)-2-((S)-7-(2,4-difluoro-6-((R)-2-hydroxypropoxy)phenyl)-4-(2-methyl-2H-indazol-5-yl)thieno[3,2-c]pyridin-6-yl)-7-methyl-6,7-dihydropyrazolo[1,5-a]pyrazin-5(4H)-yl)prop-2-en-1-one], the “% of modification” value in assay [1] (setting [3]) is “A (percent of modification of PIK3CA protein ≥75%)”. Besides, the half-maximal inhibitory concentration (IC50) in the assay on pAKT in BT474 cells (Compounds 10-999) is under 100 nM.

As to `C=CC(=O)N1CCc2nc(-c3nc(-c4ccc5c(c4)CCN(C(C)C)C5)c4ccsc4c3-c3ccc(F)cc3OCCOC)sc2C1` [Compound 135], in assay [1] (setting [3]), the “% of modification” value is “A (percent of modification of PIK3CA protein ≥75%)”. Besides, the IC50 in the assay on pAKT in BT474 cells (Compounds 10-999) was under 100 nM.

As to `C=CC(=O)N1CCc2nc(-c3nc(-c4ccc5nn(C)cc5c4)c4ccsc4c3-c3c(F)cc(F)cc3OCCO)sc2C1` [Compound 1053], in assay [1] (setting [2]), the “% of modification” value is on record as “A (percent of modification of PIK3CA protein ≥75%)”. For the same molecule, the 50% inhibitory concentration (IC50) in the assay with pAKT in BT474 cells (Compounds 1000-1279) was under 100 nM.

For `C=CC(=O)N1CCc2ncc(-c3nc(-c4cnn(C)c4)c4ccsc4c3-c3c(F)cc(F)cc3OC(C)C)cc2C1` [Compound 324], the “% of modification” value in assay [1] (setting [3]) is “A (percent of modification of PIK3CA protein ≥75%)”. In addition, the half-maximal inhibitory concentration (IC50) with pAKT in BT474 cells (Compounds 10-999) is under 100 nM.

(Values after patent publication US20250230138A1, “COMPOUNDS HAVING A T-STRUCTURE FORMED BY AT LEAST FOUR CYCLES FOR USE IN THE TREATMENT OF CANCER AND OTHER INDICATIONS” (TheRas, Inc., priority 2022, published 2025).)
